{"source": "patent US20140080907A1", "about": "“LIVER REGENERATION ACCELERATOR COMPRISING BETAINE” (SNU R&DB FOUNDATION, priority 2009, published 2014)", "key": {"[1]": {"tested_on": "resected liver", "experiment": "Liver weight increase in the rat after 2/3 partial hepatectomy or sham laparotomy", "type": "in vivo, Male Sprague Dawley rats", "experimental": "Male Sprague Dawley rats were purchased from Central Lab. Animal Inc., Korea. Test animals were adapted to an animal facility where temperature was maintained at 22±2° C., humidity at 55±5%, and artificial illumination was provided for 12 hours a day, at least for a week before being used in the experiment. The rats weighed 230-260 g at the time when partial hepatectomy was performed. Filtered tap water and solid regular rat chow were provided freely. For the animal group that was supposed to be treated with betaine, betaine purchased from Sigma, USA, was dissolved in filtered tap water at the concentration of 1% and provided to the group as drinking water. Betaine was administered after partial hepatectomy was conducted. In some experiments, betaine containing drinking water was provided to the animal group from 2 weeks before partial hepatectomy to increase the effect of betaine. Partial hepatectomy was performed according to the method originally introduced by Higgins and Anderson (Arch Path, 12; 186, 1931). The rat was anesthetized lightly with ether, and then the middle line of abdomen was incised approximately 3 cm. First, the skin was cut and then abdominal muscle was incised carefully not to damage internal organs. The incised upper part was lifted up by using a pincette to cut the connective tissues connected with diaphragm supporting liver tissue using scissors. Light pressure was applied to the surrounding area of the incision line to expose median lobe and left lateral lobe taking about 70 volume % of the total hepatic lobes. Connective tissues of each hepatic lobe were carefully removed and tied with suture to close the blood vessel, followed by elimination of the exposed hepatic lobe. Muscles and skin of the incised area were stitched up with suture. The incised area was sterilized with 70% ethyl alcohol to prevent infection. For the control group, abdominal incision was simply performed and then stitched up (Sham). Male rats were randomly divided into 4 groups of 4 rats each. Group 1, the control group, had laparotomy alone without damaging internal organs and then the opening was sealed (Sham group). Group 2 was treated with betaine after laparotomy (Sham+Betaine group). Group 3 had two-thirds (⅔) partial hepatectomy (PH group), and Group 4 was treated with betaine after ⅔ partial hepatectomy (PH+Betaine group). For the administration of betaine to the groups that had laparotomy only or partial hepatectomy, 1% betaine solution was provided as drinking water. For other groups, filtered tap water was provided as drinking water. In Table 1, the values on day 0 indicate the relative liver weight (liver/weight percentage) in the normal rats not having the surgery. Each group was composed of 4 rats except that 8 rats were used for the calculation for day 0 values. Value is mean±standard deviation. * Statistically significant difference between the group treated with betaine and the group without betaine treatment (Student's t-test, P<0.05). […] SH: Sham, PH: Partial hepatectomy. The number in parenthesis indicates % to the SH group."}, "[2]": {"experiment": "Serum hepatotoxic parameters (AST, ALT) in rats after hepatectomy", "type": "in vivo, Male Sprague Dawley rats", "conditions": "for ALT / AST: serum, end of experiment", "experimental": "(§1) Male Sprague Dawley rats were purchased from Central Lab. Animal Inc., Korea. Test animals were adapted to an animal facility where temperature was maintained at 22±2° C., humidity at 55±5%, and artificial illumination was provided for 12 hours a day, at least for a week before being used in the experiment. The rats weighed 230-260 g at the time when partial hepatectomy was performed. Filtered tap water and solid regular rat chow were provided freely. For the animal group that was supposed to be treated with betaine, betaine purchased from Sigma, USA, was dissolved in filtered tap water at the concentration of 1% and provided to the group as drinking water. Betaine was administered after partial hepatectomy was conducted. In some experiments, betaine containing drinking water was provided to the animal group from 2 weeks before partial hepatectomy to increase the effect of betaine.\n(§2) Partial hepatectomy was performed according to the method originally introduced by Higgins and Anderson (Arch Path, 12; 186, 1931). The rat was anesthetized lightly with ether, and then the middle line of abdomen was incised approximately 3 cm. First, the skin was cut and then abdominal muscle was incised carefully not to damage internal organs. The incised upper part was lifted up by using a pincette to cut the connective tissues connected with diaphragm supporting liver tissue using scissors. Light pressure was applied to the surrounding area of the incision line to expose median lobe and left lateral lobe taking about 70 volume % of the total hepatic lobes. Connective tissues of each hepatic lobe were carefully removed and tied with suture to close the blood vessel, followed by elimination of the exposed hepatic lobe. Muscles and skin of the incised area were stitched up with suture. The incised area was sterilized with 70% ethyl alcohol to prevent infection. For the control group, abdominal incision was simply performed and then stitched up (Sham).\nAlanine aminotransferase (ALT) activity and aspartate aminotransferase (AST) activity were measured by the method of Reitman and Frankel (Amer J Clin Pathol 28; 56, 1957) using spectrophotometer. ALT, AST substrate solutions and an aliquot of serum were added to a test tube, followed by incubation at 37° C. Upon completion of the reaction, the color developing agent and 0.4 N NaOH were added thereto, followed by measurement of absorptivities at 520 nm. The activity of each enzyme was calculated based on the standard calibration curve generated by using pyruvate as a substrate.\nMale rats were randomly divided into 4 groups of 4 rats each. Group 1, the control group, had laparotomy alone without damaging internal organs and then the opening was sealed (Sham group). Group 2 was treated with betaine after laparotomy (Sham+Betaine group). Group 3 had two-thirds (⅔) partial hepatectomy (PH group), and Group 4 was treated with betaine after ⅔ partial hepatectomy (PH+Betaine group). For the administration of betaine to the groups that had laparotomy only or partial hepatectomy, 1% betaine solution was provided as drinking water. For other groups, filtered tap water was provided as drinking water.\nAt the end of the experiment, hepatotoxic parameters in serum were measured.\nIn Table 2, each group was composed of 4 rats. Value is mean±standard deviation. Statistically significant difference was not shown between different groups (Oneway ANOVA followed by Neuman Keul Multiple range test, P>0.05)."}, "[3]": {"tested_on": "PCNA (proliferating cell nuclear antigen)", "experiment": "PCNA expression in liver after partial hepatectomy (Western blotting)", "type": "in vivo, rat", "conditions": "for PCNA expression, increase compared with tap water group: 1% betaine from 2 weeks before hepatectomy; for PCNA expression compared with tap water group: 1% betaine in drinking water after hepatectomy", "experimental": "as §1, §2\n(§3) Cytosolic fraction was prepared from the excised liver using the standard method. The protein of cytosol was separated by SDS-PAGE, followed by electroblotting, and then transferred to nitrocellulose membrane. The membrane was treated with PBS-T buffer containing 5% nonfat milk at 4° C. for overnight. The nitrocellulose membrane was reacted with the primary antibody diluted with 5% bovine serum albumin. The primary antibodies used herein were mouse monoclonal anti-cyclin D1 serum (Santa Cruz Biotechnology, CA, U.S.A.) and rabbit polyclonal anti-human PCNA (Santa Cruz Biotechnology, CA, U.S.A.). After washing twice with PBS-T, the membrane was treated with the secondary antibody horseradish peroxidase-conjugated goat anti-rabbit IgG (Pierce Biotechnology, Rockford, Ill., U.S.A.). […]"}, "[4]": {"tested_on": "cyclin D1", "experiment": "Cyclin D1 expression in liver after partial hepatectomy (Western blotting)", "type": "in vivo, rat", "experimental": "as §1, §2, §3"}, "[5]": {"conditions": "2/3 partial hepatectomy + 1% betaine in drinking water after surgery, day 7"}, "[6]": {"conditions": "Sham + 1% betaine in drinking water"}, "[7]": {"conditions": "partial hepatectomy + 1% betaine in drinking water"}}, "note": "Marks after values point to notes of the source that are not given here."}
{"smiles": "C[N+](C)(C)CC(=O)[O-]", "note": "[Betaine, trimethylglycine]", "values": [{"measurement": "relative liver weight (liver/weight percentage)", "setting": "[1]; 2/3 partial hepatectomy + 1% betaine in drinking water after surgery, day 1", "value": "1.47 ± 0.05", "unit": "%"}, {"measurement": "relative liver weight (liver/weight percentage)", "setting": "[1]; 2/3 partial hepatectomy + 1% betaine in drinking water after surgery, day 2", "value": "1.98 ± 0.05* %"}, {"measurement": "relative liver weight (liver/weight percentage)", "setting": "[1]; [5]", "value": "3.17 ± 0.06*, a %"}, {"measurement": "relative liver weight, % to the SH group", "setting": "[1]; [5]", "value": "(94%)"}, {"measurement": "relative liver weight, % to the SH group", "setting": "[1]; 2/3 partial hepatectomy + 1% betaine in drinking water after surgery, day 7, listed as betaine", "value": 94, "unit": "%"}, {"measurement": "relative liver weight (liver/weight percentage)", "setting": "[1]; Sham (laparotomy only) + 1% betaine in drinking water, day 7", "value": "3.30 ± 0.10", "unit": "a %"}, {"measurement": "relative liver weight (liver/weight percentage)", "setting": "[1]; Sham (laparotomy only) + 1% betaine in drinking water, day 7, listed as betaine", "value": "did not affect the relative liver weight"}, {"measurement": "relative liver weight, % to the SH group", "setting": "[1]; Sham + 1% betaine in drinking water, day 7", "value": "(98%)"}, {"measurement": "effect on serum AST and ALT activities", "setting": "[2]; 1% betaine in drinking water, sham or hepatectomized rats", "value": "did not affect serum AST and ALT activities"}, {"measurement": "ALT", "setting": "[2]; [6]", "value": "22 ± 2", "unit": "units/ml"}, {"measurement": "AST", "setting": "[2]; [6]", "value": "83 ± 3", "unit": "units/ml"}, {"measurement": "ALT", "setting": "[2]; [7]", "value": "27 ± 2", "unit": "units/ml"}, {"measurement": "AST", "setting": "[2]; [7]", "value": "78 ± 11", "unit": "units/ml"}, {"measurement": "PCNA expression, increase compared with tap water group", "setting": "[3]; 24 hours after hepatectomy (FIG. 1b)", "value": 190, "unit": "%"}, {"measurement": "PCNA expression, increase compared with tap water group", "setting": "[3]; 48 hours after hepatectomy (FIG. 1b)", "value": 150, "unit": "%"}, {"measurement": "PCNA expression compared with tap water group", "setting": "[3]; 24 hours (FIG. 1a)", "value": "significantly increased"}, {"measurement": "PCNA expression compared with tap water group", "setting": "[3]; 48 hours (FIG. 1a)", "value": "significantly increased"}, {"measurement": "cyclin D1 expression, higher than tap water group", "setting": "[4]; betaine from 2 weeks before hepatectomy, 12th hour after hepatectomy (FIG. 2)", "value": 50, "unit": "%"}, {"measurement": "cyclin D1 expression compared with tap water group", "setting": "[4]; betaine from 2 weeks before hepatectomy, 24 hours after hepatectomy (FIG. 2)", "value": "remained elevated"}, {"measurement": "cyclin D1 expression compared with tap water group", "setting": "[4]; betaine from 2 weeks before hepatectomy, 48 hours after hepatectomy (FIG. 2)", "value": "difference between the two groups disappeared"}, {"measurement": "cyclin D1 expression compared with tap water group", "setting": "[4]; normal rats without hepatectomy, betaine in drinking water, 0 hour (FIG. 2)", "value": "no significant difference"}]}
